Data on 15 molecules can be found in US6399614B1, “1-(N-phenylaminoalkyl)piperazine derivatives substituted at position 2 of the phenyl ring” (Recordati S.A. Chemical and Pharmaceutical Company, priority 1997, dated 2002).

Read-outs that look alike come from different tables or passages of the source.

Experiment [1] concerns rhythmic bladder voiding contractions. In words: Volume-induced rhythmic bladder voiding contractions in anaesthetized rats. It counts as in vivo, rat. Conditions: Rattus norvegicus, intravenous; for ED (10 min disappearance of contractions): extrapolated dose inducing 10 min of disappearance of the contractions, anaesthetized rats, read-out: ED10 min; for ED50: extrapolated dose inducing a reduction of the number of contractions >30% in 50% of treated rats, read-out: ED50 (frequency). As for the experimental part: Female Sprague Dawley rats weighing 225-275 g (Crl: CDo BR, Charles River Italia) were used. The animals were housed with free access to food and water and were maintained on a forced 12 h alternating light-dark cycle at 22-24° C. for at least one week, except during the experiment. The activity on the rhythmic bladder voiding contractions was evaluated according to the method of Dray (J. Pharmacol. Methods, 13:157, 1985), with some modifications as in Guarneri (Pharmacol. Res., 27:173, 1993). Briefly, rats were anesthetized by subcutaneous injection of 1.25 g/kg (5 ml/kg) urethane, after which the urinary bladder was catheterized via the urethra using PE 50 polyethylene tubing filled with physiological saline. The catheter was tied in place with a ligature around the external urethral orifice and was connected with conventional pressure transducers (Statham P23 ID/P23 XL). […] The bladder was then filled via the recording catheter by incremental volumes of warm (37° C.) saline until reflex bladder voiding contractions occurred (usually 0.8-1.5 ml). For intravenous (i.v.) injection of bioactive compounds, PE 50 polyethylene tubing filled with physiological saline was inserted into the jugular vein. From the cystometrogram, the number of contractions recorded 15 min before (basal values) and after treatment, as well as the mean amplitude of these contractions (mean height of the peaks in mmHg) was evaluated.
Since most compounds produced an effect that was relatively rapid in onset and led to a complete cessation of bladder contractions, bioactivity was conveniently estimated by measuring the duration of bladder quiescence (i.e., the duration of time during which no contractions occurred). The number of animals tested showing a reduction in the number of contractions >30% of that observed in the basal period was also recorded.
Also computed in this manner were extrapolated doses which induced a reduction of the number of contractions of greater than 30% in 50% of treated rats (ED50, frequency) by the method of Bliss (Bliss C. I., Quart. J. Pharm. Pharmacol. 11, 192-216, 1938). After the suppressive effects of drug injection wore off, the height of the contractile peaks was compared with the height of the peaks previously recorded after the control intravenous administration of vehicle. The potency of the tested compounds (ED50 value: the extrapolated doses inducing a 30% reduction of amplitude of the contractions in 50% of treated rats) was evaluated on a quantal basis by the method of Bliss (Bliss C. I., Quart. J. Pharm. Pharmacol. 11, 192-216, 1938).

In experiment [2] the test system is urinary bladder. In words: Cystometric parameters (cystometrogram) in conscious rats. It counts as in vivo, rat. Conditions: for BVC after treatment / MP after treatment: mean ± S.E.; for change in vivo at 0.3 mg/kg / change in vivo at 1 mg/kg: Rattus norvegicus, iv, 0.25 h, after vs before; for change in vivo at 0.3 mg/kg: i.v. 300 μg/kg; for change in vivo at 1 mg/kg: i.v. 1000 μg/kg. As for the experimental part:
Male Sprague Dawley rats (Crl: CDo BR) weighing 250-350 g were used. The animals were housed with free access to food and water and maintained on a forced 12 h alternating light-dark cycle at 22-24° C. for at least one week, except during performance of the experiment. To quantify urodynamic parameters in conscious rats, cystometrographic studies were performed using procedures previously described (Guarneri et al., Pharmacol. Res., 24:175, 1991). […] An approximately 10 mm long midline incision was made in the shaved and cleaned abdominal wall. The urinary bladder was gently freed from adhering tissues, emptied, and then cannulated, via an incision at the dome, with a polyethylene cannula (Portex PP30), which was permanently sutured with silk thread. The cannula was exteriorized through a subcutaneous tunnel in the retroscapular area, where it was connected with a plastic adapter to avoid the risk of removal by the animal. For intravenous (i.v.) injection of test compounds, a PE 50 polyethylene tubing filled with physiological saline was inserted into the jugular vein and exteriorized in the retroscapular area. The rats were utilized exclusively one day after implantation. On the day of the experiment, the rats were placed in Bollman's cages, after a stabilization period of 20 min, and the free tip of the bladder catheter was connected through a T-shaped tube to a pressure transducer (Bentley T 800/Marb P 82) and to a peristaltic pump (Gilson minipuls 2) for a continuous infusion, at the constant rate of 0.1 ml/min, of saline solution into the urinary bladder. The intraluminal pressure signal during infusion was continuously recorded on a polygraph (Battaglia Rangoni KO 380 with ADCl/T amplifier).
Two urodynamic parameters were evaluated: bladder volume capacity (BVC) and micturition pressure (MP). BVC (in ml) is defined as the minimum volume infused after which detrusor contraction (followed by micturition) occurs. MP (in mm Hg) is defined as the maximal intravesical pressure induced by the contraction of detrusor during micturition. Basal BVC and MP values were calculated as the means of the first two recorded cystometrograms. At this point in the assay, the infusion was interrupted and the test compounds were administered. Fifteen minutes after intravenous administration two additional cystometrograms were recorded in each animal and the mean values of the two cystometrographic parameters were calculated. The statistical significance of the differences in urodynamic parameter values was evaluated by Student's t test for paired data.

The target of experiment [3] is T1, human 5-HT1A serotonergic receptor (Homo sapiens, UniProt P08908).
T1 construct: expressed in transfected cells; host or cells: HeLa
T1 sequence (P08908 1-422): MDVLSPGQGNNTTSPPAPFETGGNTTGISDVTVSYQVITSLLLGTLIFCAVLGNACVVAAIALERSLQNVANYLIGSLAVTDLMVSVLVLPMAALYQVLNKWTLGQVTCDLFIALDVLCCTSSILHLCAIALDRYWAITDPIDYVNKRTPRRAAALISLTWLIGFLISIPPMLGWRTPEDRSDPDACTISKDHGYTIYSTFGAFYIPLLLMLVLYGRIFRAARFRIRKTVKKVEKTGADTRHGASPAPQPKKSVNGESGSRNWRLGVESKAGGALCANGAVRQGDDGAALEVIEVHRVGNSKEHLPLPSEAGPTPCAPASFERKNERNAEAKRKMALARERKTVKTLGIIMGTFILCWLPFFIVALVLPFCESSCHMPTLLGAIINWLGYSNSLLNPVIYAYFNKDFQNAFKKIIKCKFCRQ
Nature of the experiment: Radioreceptor binding, recombinant human 5-HT1A receptors ([3H]8-OH-DPAT, HeLa membranes). Conditions: recombinant human receptor, [3H]8-OH-DPAT; Ki from IC50 by Cheng & Prusoff; read-out: Binding affinity for the 5-HT1A receptor, Ki. As for the experimental part:
Genomic clone G-21 coding for the human 5-HT1A serotonergic receptor is stably transfected in a human cell line (HeLa). HeLa cells were grown as monolayers in Dulbecco's modified Eagle's medium (DMEM), supplemented with 10% fetal calf serum and gentamicin ([…]), 5% CO2 at 37° C. Cells were detached from the growth flask at 95% confluence by a cell scraper and were lysed in ice-cold 5 mM Tris and 5 mM EDTA buffer (pH 7.4). Homogenates were centrifuged at 40000×g×20 min and pellets were resuspended in a small volume of ice-cold 5 mM Tris and 5 mM EDTA buffer (pH 7.4) and immediately frozen and stored at −70° C. until use. On the day of experiment, cell membranes were resuspended in binding buffer: 50 mM Tris HCl (pH 7.4), 2.5 mM MgCl2, 10 μM pargiline (Fargin et al., Nature 335, 358-360, 1988). Membranes were incubated in a final volume of 1 ml for 30 min at 30° C. with 0.2-1 nM [3H]8-OH-DPAT, in absence or presence of competing drugs; non-specific binding was determined in the presence of 10 μM 5-HT. The incubation was stopped by addition of ice-cold Tris-HCl buffer and rapid filtration through 0.2% polyethyleneimine pretreated Whatman GF/B or Schleicher & Schuell GF52 filters.
The inhibition of specific binding of the radioligands by the tested drugs was analyzed to estimate the IC50 value by using the non-linear curve-fitting program Allfit (De Lean et al., Am. J. Physiol. 235, E97-E102, 1978). The IC50 value was converted to an affinity constant (Ki) by the equation of Cheng & Prusoff (Cheng, Y. C.; Prusoff, W. H. Biochem. Pharmacol. 22, 3099-3108, 1973).

As for `COc1ccccc1N1CCN(CCNc2cccc([N+](=O)[O-])c2)CC1` [Compound D, 1-[N-(3-nitrophenyl)-2-aminoethyl]-4-(2-methoxyphenyl)piperazine, reference compound], in experiment [1], the ED (10 min disappearance of contractions) was over 1 mg/kg and the ED50 is over 1 mg/kg.
Regarding `COc1ccccc1N1CCN(CCNc2ccccc2[N+](=O)[O-])CC1` [Example 1, 1-[N-(2-nitrophenyl)-2-aminoethyl]-4-(2-methoxyphenyl)piperazine], in experiment [1], the ED (10 min disappearance of contractions) was 0.192 mg/kg and the median effective dose (ED50) is 0.055 mg/kg.
For the molecule `COc1ccccc1N1CCN(CCN(C(=O)C2CCCCC2)c2ccccc2I)CC1` [Example 8], in experiment [2] (15 min after i.v. 300 μg/kg), the BVC after treatment is 0.71 ± 0.05 mL and the MP after treatment was 98.3 ± 17.2 mmHg. In experiment [2] (15 min after i.v. 1000 μg/kg), the BVC after treatment is 0.88 ± 0.12 mL and the MP after treatment is reported as 64.8 ± 10.5 mmHg. In addition, in experiment [2] (read-out: BVC % of change), the change in vivo at 0.3 mg/kg amounted to 21% and the change in vivo at 1 mg/kg amounted to 35%. In experiment [2] (read-out: MP % of change), the change in vivo at 0.3 mg/kg is -15% and the change in vivo at 1 mg/kg was -20%. Besides, in experiment [3], the Ki amounted to 0.36 nM.
Consider `COc1ccccc1N1CCN(CCN(C(=O)C2CCCCC2)c2ccccc2C#N)CC1.Cl` [Example 43, 1-[N-(2-cyanophenyl)-N-cyclohexylcarbonyl-2-aminoethyl]-4-(2-methoxyphenyl)piperazine Hydrochloride], for which, in experiment [1], the ED (10 min disappearance of contractions) is 0.052 mg/kg and the ED50 is 0.004 mg/kg.
Take `COc1ccccc1N1CCN(CCNc2ccccc2)CC1` [Compound AA, 1-(N-phenyl-2-aminoethyl)-4-(2-methoxyphenyl)piperazine, reference compound]: in experiment [1], the ED (10 min disappearance of contractions) was 0.663 mg/kg and the 50% effective dose (ED50) was 0.244 mg/kg.
On the same counts, the results for `COc1ccccc1N1CCN(CCNc2ccc([N+](=O)[O-])cc2)CC1` [Compound E, 1-[N-(4-nitrophenyl)-2-aminoethyl]-4-(2-methoxyphenyl)piperazine, reference compound] are over 1 mg/kg and over 1 mg/kg.
In the case of `COc1ccccc1N1CCN(CCN(C(=O)C2CCCCC2)c2ccccc2C(=O)NC(=O)C2CCCCC2)CC1` [Example 16, 1-[N-(2-cyclohexylcarbonylaminocarbonylphenyl)-N-cyclohexylcarbonyl-2-aminoethyl]-4-(2-methoxyphenyl)piperazine], the Ki in experiment [3] worked out at 2.9 nM.
Same read-out and setting: the figure for `COc1cc(NC(=O)C(F)(F)F)ccc1N1CCN(CCN(C(=O)C2CCCCC2)c2ccccc2OC(F)(F)F)CC1` [Example 58, 1-[N-cyclohexylcarbonyl-N-(2-trifluoromethoxyphenyl)-2-aminoethyl]-4-(4-trifluoroacetylamino-2-methoxyphenyl)piperazine] is 2.44 nM; for `O=C(C1CCCCC1)N(CCN1CCN(c2ccccc2OC(F)(F)F)CC1)c1ccccc1OC(F)(F)F` [Example 72, 1-[N-cyclohexylcarbonyl-N-(2-trifluoromethoxyphenyl)-2-aminoethyl]-4-(2-trifluoromethoxyphenyl)piperazine] it is 1.22 nM; for `COc1ccc(Br)c(CN2CCN(CCN(C(=O)C3CCCCC3)c3ccccc3C#N)CC2)c1` [Example 83, 1-[N-(2-cyanophenyl)-N-cyclohexylcarbonyl-2-aminoethyl]-4-(2-bromo-5-methoxybenzyl)piperazine] it is 1.31 nM.
The same measure, in the same setting: the value for `O=C(C1CCCCC1)N(CCN1CCN(Cc2cc(Cl)ccc2Cl)CC1)c1ccccc1[N+](=O)[O-]` [Example 15, 1-[N-(2-nitrophenyl)-N-cyclohexylcarbonyl-2-aminoethyl]-4-(2,5-dichlorobenzyl)piperazine] was 6.2 nM; that for `COc1ccccc1N1CCN(CCN(C(=O)C2CCCCC2)c2ccccc2C(=O)OCc2ccccc2)CC1` [Example 49, 1-[N-cyclohexylcarbonyl-N-(2-benzyloxycarbonylphenyl)-2-aminoethyl]-4-(2-methoxyphenyl)piperazine] was 0.17 nM; that for `O=[N+]([O-])c1ccccc1NCCN1CCN(c2cccc3[nH]ccc23)CC1` [Example 12, 1-[N-(2-nitrophenyl)-2-aminoethyl]-4-(4-indolyl)piperazine] was 4.77 nM.
Turning to `COc1ccccc1N1CCN(CCNc2ccccc2I)CC1` [Example 7, 1-[N-(2-iodophenyl)-2-aminoethyl]-4-(2-methoxyphenyl)piperazine], in experiment [3], the Ki turned out to be 3.82 nM.
Regarding `COc1ccccc1N1CCN(CC(C)Nc2ccccc2[N+](=O)[O-])CC1` (stereo not shown) [Example 52, 1-[N-(2-nitrophenyl)-2-aminopropyl]-4-(2-methoxyphenyl)piperazine], the Ki in experiment [3] amounted to 34 nM.
